Measurements reported in ChEMBL document CHEMBL3885881, “DrugMatrix”.

Organism: Rattus norvegicus
Test: DrugMatrix - Regimen: Daily Repeat
Type: toxicity, organism-based, Sprague-Dawley
Design: regimen Daily Repeat, gender Male, age 6-8 weeks
Details: in vivo, po, route oral GAVAGE, […]; for ABSOLUTE BASOPHIL / ABSOLUTE EOSINOPHIL / ABSOLUTE LYMPHOCYTE / ABSOLUTE MONOCYTE / ABSOLUTE SEGMENTED NEUTROPHIL / BASOPHIL / EOSINOPHIL / ERYTHROCYTE COUNT / HEMATOCRIT / HEMOGLOBIN / LEUKOCYTE COUNT / LYMPHOCYTE / MEAN CORPUSCULAR HEMOGLOBIN / MEAN CORPUSCULAR HEMOGLOBIN CONCENTRATION / MONOCYTE / NEUTROPHIL / NUCLEATED RED BLOOD CELLS / PLATELET COUNT: tissue Blood; for ALANINE AMINOTRANSFERASE / ALBUMIN / ALKALINE PHOSPHATASE / ASPARTATE AMINOTRANSFERASE / BLOOD UREA NITROGEN / CARBON DIOXIDE / CHLORIDE / CHOLESTEROL / CREATINE PHOSPHOKINASE / CREATININE / LACTATE DEHYDROGENASE / LIPASE / PHOSPHORUS / POTASSIUM / SODIUM / TOTAL BILIRUBIN / TOTAL PROTEIN / URIC ACID: tissue Plasma
[1] = 0 mg/kg, 72 h, dose level Control, time 3 day
[2] = 0 mg/kg, 120 h, dose level Control, time 5 day
[3] = 10 mg/kg, 72 h, dose level Low, time 3 day

CN(CCOc1ccc(CC2SC(=O)NC2=O)cc1)c1ccccn1 (stereo not drawn) [ROSIGLITAZONE]
ABSOLUTE BASOPHIL [1]: 0 CELLS/uL | ABSOLUTE EOSINOPHIL [1]: 14 CELLS/uL | ABSOLUTE LYMPHOCYTE [1]: 11144.67 CELLS/uL | ABSOLUTE MONOCYTE [1]: 22.5 CELLS/uL | ABSOLUTE SEGMENTED NEUTROPHIL [1]: 535.5 CELLS/uL | BASOPHIL [1]: 0% | EOSINOPHIL [1]: 0.17% | ERYTHROCYTE COUNT [1]: 5.08 x10E6/uL | HEMATOCRIT [1]: 32.32% | HEMOGLOBIN [1]: 12.87 G/DL | LEUKOCYTE COUNT [1]: 11.72 x10E3/uL | LYMPHOCYTE [1]: 94.67% | MEAN CORPUSCULAR HEMOGLOBIN [1]: 25.37 pg | MEAN CORPUSCULAR HEMOGLOBIN CONCENTRATION [1]: 39.85 G/DL | MONOCYTE [1]: 0.17% | NEUTROPHIL [1]: 5% | NUCLEATED RED BLOOD CELLS [1]: 0 /100WBC | PLATELET COUNT [1]: 1084 x10E3/uL | ALANINE AMINOTRANSFERASE [1]: 67.5 u/L | ALBUMIN [1]: 4.02 G/DL | ALKALINE PHOSPHATASE [1]: 374.17 u/L | ASPARTATE AMINOTRANSFERASE [1]: 83.5 u/L | BLOOD UREA NITROGEN [1]: 14.5 mg/dL | CARBON DIOXIDE [1]: 30 mmol/L | CHLORIDE [1]: 100.5 MEQ/L | CHOLESTEROL [1]: 71.33 mg/dL | CREATINE PHOSPHOKINASE [1]: 268.33 u/L | CREATININE [1]: 0.16 mg/dL | LACTATE DEHYDROGENASE [1]: 81.17 u/L | LIPASE [1]: 16.67 u/L | PHOSPHORUS [1]: 10.07 mg/dL | POTASSIUM [1]: 5.03 MEQ/L | SODIUM [1]: 142.92 MEQ/L | TOTAL BILIRUBIN [1]: 0.17 mg/dL | TOTAL PROTEIN [1]: 5.63 G/DL | URIC ACID [1]: 0.5 mg/dL | ABSOLUTE BASOPHIL [2]: 0 CELLS/uL | ABSOLUTE EOSINOPHIL [2]: 37.5 CELLS/uL | ABSOLUTE LYMPHOCYTE [2]: 8049.5 CELLS/uL | ABSOLUTE MONOCYTE [2]: 82.83 CELLS/uL | ABSOLUTE SEGMENTED NEUTROPHIL [2]: 646.83 CELLS/uL | BASOPHIL [2]: 0% | EOSINOPHIL [2]: 0.5% | ERYTHROCYTE COUNT [2]: 5.36 x10E6/uL | HEMATOCRIT [2]: 33.9% | HEMOGLOBIN [2]: 13.02 G/DL | LEUKOCYTE COUNT [2]: 8.82 x10E3/uL | LYMPHOCYTE [2]: 90.17% | MEAN CORPUSCULAR HEMOGLOBIN [2]: 24.32 pg | MEAN CORPUSCULAR HEMOGLOBIN CONCENTRATION [2]: 38.42 G/DL | MONOCYTE [2]: 1.17% | NEUTROPHIL [2]: 8.17% | NUCLEATED RED BLOOD CELLS [2]: 0.17 /100WBC | PLATELET COUNT [2]: 1231.5 x10E3/uL | ALANINE AMINOTRANSFERASE [2]: 62 u/L | ALBUMIN [2]: 3.97 G/DL | ALKALINE PHOSPHATASE [2]: 303.67 u/L | ASPARTATE AMINOTRANSFERASE [2]: 84.5 u/L | BLOOD UREA NITROGEN [2]: 14.83 mg/dL | CARBON DIOXIDE [2]: 31.83 mmol/L | CHLORIDE [2]: 97 MEQ/L | CHOLESTEROL [2]: 68.83 mg/dL | CREATINE PHOSPHOKINASE [2]: 411.33 u/L | CREATININE [2]: 0.16 mg/dL | LACTATE DEHYDROGENASE [2]: 88.5 u/L | LIPASE [2]: 9.5 u/L | PHOSPHORUS [2]: 9.98 mg/dL | POTASSIUM [2]: 5.72 MEQ/L | SODIUM [2]: 141.62 MEQ/L | TOTAL BILIRUBIN [2]: 0.1 mg/dL | TOTAL PROTEIN [2]: 5.67 G/DL | URIC ACID [2]: 0.52 mg/dL | ABSOLUTE BASOPHIL [3]: 0 CELLS/uL | ABSOLUTE EOSINOPHIL [3]: 0 CELLS/uL | ABSOLUTE LYMPHOCYTE [3]: 11817.33 CELLS/uL | ABSOLUTE MONOCYTE [3]: 150.67 CELLS/uL | ABSOLUTE SEGMENTED NEUTROPHIL [3]: 1032 CELLS/uL | BASOPHIL [3]: 0% | EOSINOPHIL [3]: 0% | ERYTHROCYTE COUNT [3]: 4.98 x10E6/uL | HEMATOCRIT [3]: 32.63% | HEMOGLOBIN [3]: 12.83 G/DL | LEUKOCYTE COUNT [3]: 13 x10E3/uL | LYMPHOCYTE [3]: 91.33% | MEAN CORPUSCULAR HEMOGLOBIN [3]: 25.77 pg | MEAN CORPUSCULAR HEMOGLOBIN CONCENTRATION [3]: 39.37 G/DL | MONOCYTE [3]: 1% | NEUTROPHIL [3]: 7.67% | NUCLEATED RED BLOOD CELLS [3]: 0 /100WBC | PLATELET COUNT [3]: 1118.67 x10E3/uL | ALANINE AMINOTRANSFERASE [3]: 64.67 u/L | ALBUMIN [3]: 4 G/DL | ALKALINE PHOSPHATASE [3]: 377.67 u/L | ASPARTATE AMINOTRANSFERASE [3]: 83.67 u/L | BLOOD UREA NITROGEN [3]: 16.33 mg/dL | CARBON DIOXIDE [3]: 32.67 mmol/L | CHLORIDE [3]: 99.33 MEQ/L | CHOLESTEROL [3]: 66.33 mg/dL | CREATINE PHOSPHOKINASE [3]: 223.67 u/L | CREATININE [3]: 0.16 mg/dL | LACTATE DEHYDROGENASE [3]: 89 u/L | LIPASE [3]: 9.67 u/L | PHOSPHORUS [3]: 9.83 mg/dL | POTASSIUM [3]: 5.42 MEQ/L | SODIUM [3]: 143.77 MEQ/L | TOTAL BILIRUBIN [3]: 0.13 mg/dL | TOTAL PROTEIN [3]: 5.7 G/DL | URIC ACID [3]: 0.53 mg/dL
